{"source": "patent US9155693B2", "about": "“Solubilized magnolol analogs” (Colgate-Palmolive Company, priority 2011, dated 2015)", "key": {"[1]": {"format": "physicochemical", "source_text": "The PPG-1-PEG-9 lauryl glycol ether is capable of solubilizing up to 100 g per liter of neat propyl magnolol or isopropyl magnolol or up to 50 g per liter of butyl magnolol or isobutyl magnolol. In certain embodiments, the amount of PPG-1-PEG-9 lauryl glycol ether is at least 10 times the weight of the propyl magnolol or isopropyl magnolol in the composition. In certain embodiments, the amount of PPG-1-PEG-9 lauryl glycol ether is at least 20 times the weight of butyl or isobutyl magnolol in the composition.\nPPG-1-PEG-9 lauryl glycol ether is available as Eumulgin™ L from Cognis Corporation."}, "[2]": {"assay": "Solubility of magnolol analogs in the combination of PPG-1-PEG-9 lauryl glycol ether, coceth-7 and PEG-40 hydrogenated castor oil (Eumulgin HPS)", "format": "physicochemical", "conditions": "PPG-1-PEG-9 lauryl glycol ether in combination with coceth-7 and PEG-40 hydrogenated castor oil (Eumulgin HPS)", "source_text": "The PPG-1-PEG-9 lauryl glycol ether can also be included in combination with coceth-7 and PEG-40 hydrogenated castor oil. This combination is available as Eumulgin™ HPS from Cognis Corporation. When this combination is used, the solubility stays the same except for butyl magnolol. This combination solubilizes up to 100 g per liter of butyl magnolol as compared to up to 50 g per liter for PPG-1-PEG-9 lauryl glycol ether alone. In certain embodiments, the amount of this combination is at least 10 times the weight of butyl magnolol."}}}
{"smiles": "CCCCc1ccc(O)c(-c2cc(CCCC)ccc2O)c1", "note": "[butyl magnolol, 5,5′-di-n-butylbiphenyl-2,2′-diol]", "values": [{"measurement": "amount solubilized by PPG-1-PEG-9 lauryl glycol ether", "setting": "[1]", "result": "up to 50 g per liter"}, {"measurement": "amount solubilized by the combination", "setting": "[2]", "result": "up to 100 g per liter"}]}
{"smiles": "CC(C)Cc1ccc(O)c(-c2cc(CC(C)C)ccc2O)c1", "note": "[isobutyl magnolol, 5,5′-di-isobutylbiphenyl-2,2′-diol]", "values": [{"measurement": "amount solubilized by PPG-1-PEG-9 lauryl glycol ether", "setting": "[1]", "result": "up to 50 g per liter"}]}
{"smiles": "CC(C)c1ccc(O)c(-c2cc(C(C)C)ccc2O)c1", "note": "[isopropyl magnolol, 5,5′-di-isopropylbiphenyl-2,2′-diol]", "values": [{"measurement": "amount solubilized by PPG-1-PEG-9 lauryl glycol ether", "setting": "[1]", "result": "up to 100 g per liter"}]}
{"smiles": "CCCc1ccc(O)c(-c2cc(CCC)ccc2O)c1", "note": "[propyl magnolol, 5,5′-di-n-propylbiphenyl-2,2′-diol]", "values": [{"measurement": "amount solubilized by PPG-1-PEG-9 lauryl glycol ether", "setting": "[1]", "result": "up to 100 g per liter"}]}
